What was measured:
[1] = In vitro rat liver S9 stability assay (formation of tafamidis); assay type: in vitro ADME; settings: rat liver S9, 1 μM test compound, 37° C.
Outline: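 Test compound at 1 μM was incubated with rat liver S9 at 37° C. Samples taken at 0, 5, 10, 20, 30 and 60 min were protein-precipitated and analysed by LC-MS/MS. Percentage formation of the active agent was calculated at each time point.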

[2] = In vivo rat PK (CSF/plasma and brain/plasma ratio of tafamidis); settings: for Tafamidis CSF/plasma Ratio over 24 hrs (po): oral dosing of test compound
Excerpt: For a compound provided herein to be an effective TTR stabilizer drug to halt and/or prevent the ocular and cerebral TTR amyloid deposition TTR amyloidosis, it has to be able to penetrate into the brain and CSF (surrogate for eye penetration) and deliver a sufficient amount of TTR stabilizer to stop TTR dissociation. A pharmacokinetic study in rat was used to evaluate the compounds. Male Sprague-Dawley (SD) rats (200-220 g weight) were acclimated for at least 2 to 3 days before being placed on study. All animals had access to certified rodent diet and water at libitum. Appropriate amount of the test compound was accurately weighed and mixed with appropriate volume of vehicle (such as DMSO/sterile water for iv dosing or 0.5% methylcellulose homogenous suspension or solution for oral administration or as a solution in a mixture NMP/PEG400/solutol/water) to administer a dose of 2, 5 or 10 mg/kg. For IV dosing the test compound was administered via tail vein or indwelling cannula. For oral dosing, the test compound was administered by oral gavage. Blood and CSF samples were collected at selected timepoints. Blood collection was performed from saphenous vein or tail vein of each animal into polypropylene tubes at each timepoint. All blood samples were transferred into EDTA-K2 tubes and centrifuged for 15 minutes at 4° C. for plasma collection. Plasma samples were kept at −80° C. until LC/MSMS analysis. CSF was collected from cisterna magna at each timepoint and quick frozen over dry ice and kept at −80° C. until LC/MSMS analysis. Brains were harvested immediately after the terminal bleeding (˜24 hrs post dosing). The blood of the brain was perfused with normal saline. The brain was quickly picked and placed into centrifuge tube. The weight of brain samples was recorded. 4-Fold homogenization solution (MeOH/15 mM PBS (1:2)) was added into the tube according to the weighed samples. The brain was homogenized using a Polytron (3 strokes or more until homogenous, each 30 seconds) on wet ice. The samples were quick frozen over dry ice and kept at −80° C. until LC/MSMS analysis. Using a LC-MSMS method for the quantitative determination of test compound in biological matrixes, amount of test compound and active agent were measured in plasma and CSF at selected timepoints post-dosing and in brain at 24 hrs post dosing. Plasma concentration versus time data was analyzed by non-compartmental approaches using the Phoenix WinNonlin 6.3 software program. As reference, an oral dose of 2 mg/kg of tafamidis gave a CSF to plasma ratio over 24 hrs around 0.01 and a brain to plasma ratio at 24 hrs around 0.02.
Results from rat PK (CSF/plasma ratio and brain/plasma ratio at 24 hrs) are shown in Table 4B and Table 4C, respectively.

[3] = tafamidis-treated FAP patients; cited from earlier work

Row | Formation of tafamidis at 60 min [1] | Tafamidis CSF/plasma Ratio over 24 hrs (po) [2] | Kp ([2]; male, Sprague-Dawley, CSF and plasma, oral dose of 2 mg/kg of tafamidis, reference, read-out: CSF to plasma ratio over 24 hrs) | Kp at 24 h ([2]; male, Sprague-Dawley, brain and plasma, oral dose of 2 mg/kg of tafamidis, reference) | SMILES | tafamidis level in CSF, of that in plasma [3] | tafamidis level in vitreous, of that in plasma [3] | tafamidis/TTR stoichiometric ratio in plasma [3] | tafamidis/TTR stoichiometric ratio in vitreous and CSF [3]
1 | A (A is <25%) | B (B is ≥0.015 to <0.02) | – | – | CC1(O)CN(C(=O)c2ccc3nc(-c4cc(Cl)cc(Cl)c4)oc3c2)C1 [Compound 101] | – | – | – | –
2 | A (A is <25%) | A (A is <0.015) | – | – | O=C(c1ccc2nc(-c3cc(Cl)cc(Cl)c3)oc2c1)N1CCC(F)(F)C1 [Compound 104] | – | – | – | –
3 | – | – | ~0.01 | ~0.02 | O=C(O)c1ccc2nc(-c3cc(Cl)cc(Cl)c3)oc2c1 [tafamidis] | 2% | 0.5% | 2.4 | ≤ 1
